Consider 9 compounds from patent US20120045522A1 (priority 2010, published 2012).

By melting point is commonly meant the temperature, or range, at which the solid turns liquid.

In series [1] the test system is Phytophthora infestans. The format is in vivo. To be noted: hydrazone 50 ppm plus 50 μM CuCl2.2H2O, applied 24 h before inoculation, assessed 7 days after inoculation, tomato plants.
The subject of series [2] is Leptosphaeria nodorum (LEPTNO). Description: In vitro fungitoxicity (growth inhibition) assay in copper-minus / copper-plus liquid medium. The format is cell-based. To be noted: for inhibition of growth at 0.05 µg/mL: Parastagonospora nodorum, copper-minus medium, light scattering, read-out: LEPTNO % Inhn. Minus Copper Observed; for inhibition of growth at 0.05 µg/mL / LEPTNO % Inhn. Plus Copper Observed: test compound at 0.05 μg/mL, 72 h at 25° C.; for LEPTNO % Inhn. Plus Copper Observed: copper-plus medium (CuCl2.2H2O). The protocol: In vitro fungitoxicity assays against Leptosphaeria nodorum (LEPTNO) were conducted using the liquid growth medium described by Coursen and Sisler (American Journal of Botany 1960, 47, 541-549) except that copper micronutrient, normally included as CuSO4, was omitted. The medium, termed “copper-minus,” was prepared by dissolving 10 g glucose, 1.5 g K2HPO4, 2 g KH2PO4 and 1 g (NH4)2SO4 in 1 liter of deionized water and treating the solution with 0.5 g Chelex 100 resin (Bio-Rad Analytical grade, 50-100 mesh, sodium form, cat#142-2822) by stirring at room temperature for 1 h. MgSO4.7H2O (0.5 g) was added, and stirring was continued for a further hour. Trace elements (minus CuSO4), and vitamins described by Coursen and Sisler were added from concentrated stock solutions and the entire medium was sterilized by filtration. Medium containing copper was prepared by adding CuCl2.2H2O to the copper-minus medium at 20 μM. Test compounds were dissolved in dimethylsulfoxide (DMSO) at 10 μg/mL and 1 μL aliquots were added to two wells of flat-bottomed 96-well microtiter plates. Copper-minus medium (100 μL) was added to one of the wells and copper-plus medium to the second well. Control wells, included for each medium, received 1 μL DMSO and 100 μL of medium.
LEPTNO was grown on potato dextrose agar in 9 cm diameter petri dishes for 7 days. Sterile deionized water (20 mL) was added to a culture plate and spores suspended by scraping the surface gently with a sterile plastic loop. The resulting suspension was filtered through a double layer of sterile cheesecloth. Filtered spore suspension (5 mL) was centrifuged in a bench centrifuge at 2000 rpm for 2 min. The resulting spore pellet was resuspended in 10 mL sterile deionized water (which had been treated with Chelex 100 resin using 0.5 g resin per liter of water by stirring at room temperature for 1 h), and recentrifuged. The spores were resuspended in copper-minus medium, and the suspension adjusted to 2×10^5 spores per mL. Microtiter plates were inoculated with 100 μL of this spore suspension and the plates incubated at 25° C. for 72 h before assessing fungal growth by measuring light scattering in a NepheloStar plate reader. Growth inhibition was determined by comparing growth in the presence of test compound with growth in control wells lacking test compound.
Results for growth inhibition by test compounds at 0.05 μg/mL in copper-plus medium (% Inhn. Plus Copper Observed) were compared with predicted values (% Inhn. Plus Copper Predicted) that were calculated using the formula set forth by S. R. Colby in Weeds 1967, 15, 20-22 based on results obtained for the same compounds in copper-minus medium (% Inhn. Minus Copper Observed) and the inhibition attributed to copper chloride alone, as determined by comparing growth in copper-minus and copper-plus media without any test compound across experiments. Results illustrate that hydrazones and copper produce a synergistic fungitoxic effect towards LEPTNO.

Compound `Cc1ccc(C(=O)N/N=C2\CCc3c(Cl)cc(Cl)c(O)c32)cc1` [Compound 1, 4-Methylbenzoic acid [4,6-dichloro-7-hydroxy-indanylidine]hydrazide] had a melting point of 218 to 222 °C. Moreover, the TLB % control in series [1] is 78%. Further, in series [2], the inhibition of growth at 0.05 µg/mL was determined as 15.2% and the “LEPTNO % Inhn. Plus Copper Observed” value was 96.8%.
The like results for `O=C(N/N=C1\CCc2c(Cl)cc(Cl)c(O)c21)c1ccc(Cl)cc1` [Compound 2] were, in that order, 252 to 255 °C, 78%, 16.7% and 96.8%.
The like results for `O=C(N/N=C1\CCc2c(Cl)cc(Cl)c(O)c21)c1ccccc1O` [Compound 3] were, in that order, 285 to 290 °C, 55%, 24.9% and 97.1%.
The like results for `COc1ccc(C(=O)N/N=C2\CCc3c(Cl)cc(Cl)c(O)c32)cc1` [Compound 4] were, in that order, 230 to 233 °C, 64%, 3.5% and 96.6%.
In the case of `O=C(N/N=C1\CCc2c(Cl)cc(Cl)c(O)c21)c1ccc(C(F)(F)F)cc1` [Compound 5], the melting point is 245 to 248 °C. Also, the TLB % control in series [1] was 53%. Also, in series [2], the inhibition of growth at 0.05 µg/mL amounted to 20.7% and the “LEPTNO % Inhn. Plus Copper Observed” value is listed as 97.2%.
As to `O=C(N/N=C1\CCc2c(Cl)cc(Cl)c(O)c21)c1ccccc1` [Compound 6], the melting point is 243 to 245 °C. Besides, the TLB % control in series [1] is listed as 95%. Besides, in series [2], the inhibition of growth at 0.05 µg/mL turned out to be 23.1% and the “LEPTNO % Inhn. Plus Copper Observed” value worked out at 94.1%.
For the compound `O=C(N/N=C1\CCc2cccc(O)c21)c1ccccc1` [Compound 7], the melting point was 192 to 194 °C. Also, the TLB % control in series [1] came out at 61%. Further, in series [2], the inhibition of growth at 0.05 µg/mL amounted to 0% and the “LEPTNO % Inhn. Plus Copper Observed” value stood at 95.3%.
The like results for `Cc1ccc(C(=O)N/N=C2\CCc3c(Cl)cc(Cl)c(O)c32)c(O)c1` [Compound 8] were, in that order, 284 to 288 °C, 69%, 0% and 96.9%.
`O.O.[Cl][Cu][Cl]` [CuCl2, CuCl2.2H2O, reference compound]: in series [2] (CuCl2 10 μM, no test compound, growth in copper-plus vs copper-minus medium across experiments), the “LEPTNO % inhibition attributed to copper chloride alone” value was 13.2%.
